Values joined by “and” are separate entries in the source; they are usually repeats but may differ in a detail not shown here. Equal values may be shown once. Where a name gives a salt, the structure may show the parent alone. Read-outs that look alike come from different tables or passages of the source.
How the values were obtained:
[1] = system: DMS-114; test: In vitro tumor cell proliferation, DMS-114; type: cell-based, human; conditions: many values given with an undefined *, read-out: In vitro Tumor Cell Proliferation (IC50, μM) Lung DMS-114
In short: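 Human small cell lung carcinoma DMS-114 cells plated overnight, then drug-treated for 3 days, medium and drug renewed, and incubated 4 more days. Growth read by sulforhodamine B staining after TCA fixation; alternatively by CyQUANT after 3 days' drug exposure and freezing at −80 °C.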

[2] = system: MDA-MB-231; test: In vitro tumor cell proliferation, MDA-MB-231; type: cell-based, human; conditions: sulforhodamine B or CyQUANT assay, many values given with an undefined *, read-out: In vitro Tumor Cell Proliferation (IC50, μM) Breast MDA-MB-231
In short: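 Proliferation quantified by SRB staining of TCA-fixed cells after 3 days of drug plus 4 days with replenished drug, following overnight attachment at 37 °C.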

[3] = biological target: T1, cdk4/cyclin D1 (Homo sapiens, UniProt P11802); test: Cyclin-dependent Kinase 4 Assay (cdk4/cyclin D1, GST-Rb substrate); type: biochemical; conditions: cdk4/cyclin D1 insect cell lysate, 10 μM ATP, 30 min at 37° C., several values = separate determinations, read-out: CDK4 Inhibition IC50
T1 construct: made in house; host or cells: Sf9 insect cells (Bac-to-Bac baculovirus, pFastBac)
In short: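 IC50 against cdk4 measured by scintillation counting of bead-bound GST-Rb (0.5 μg) after filtration and four TNEN washes. Reaction was 30 min at 37 °C in HEPES pH 7.5 buffer with 10 mM MgCl2 and 1 mM EGTA. Enzyme source was 0.1 μg Sf9 lysate coinfected with cdk4 and cyclin D1.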

[4] = system: Colo-205; test: In vitro tumor cell proliferation, Colo-205; type: cell-based; conditions: values given with an undefined *, read-out: In vitro Tumor Cell Proliferation (IC50, μM) Colon Colo-205
In short: (§1)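 Tumor cells were seeded overnight at 37° C, then exposed to drug diluted in culture medium for 3 days, refed with fresh drug-containing medium and kept 4 more days. Cells were fixed with 10% trichloroacetic acid and stained with 0.4% sulforhodamine B; alternatively, CyQUANT read proliferation after 3 days' drug exposure.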

[5] = system: DU145; test: In vitro tumor cell proliferation, DU145; type: cell-based, human; conditions: many values given with an undefined *, read-out: In vitro Tumor Cell Proliferation (IC50, μM) Prostate DU145
In short: as §1

[6] = system: PC-3; test: In vitro tumor cell proliferation, PC-3; type: cell-based, human; conditions: many values given with an undefined *, read-out: In vitro Tumor Cell Proliferation (IC50, μM) Prostate PC-3
In short: as §1

[7] = biological target: T2, cdk2/cyclin E (Homo sapiens, UniProt P24941); test: Cyclin-Dependent Kinase 2 Assay (cdk2/cyclin E, GST-Rb substrate); type: biochemical; conditions: recombinant cdk2/cyclin E, 10 μM ATP, 30 min at 30° C., several values in a cell = separate determinations, read-out: CDK-2 Inhibition IC50
T2 construct: made in house; host or cells: insect cells (baculovirus co-infection)
Method: Substrate: GST-Rb as described above for cdk4/cyclin D1
Assay conditions for cdk2/cyclin E were identical to those for cdk4/cyclin D1 including the substrate. The concentration of recombinant cdk2/cyclin E in the assay was 0.1 μg per 100 μl assay. Incubation was for 30 min at 30° C.

[8] = system: A549; test: In vitro tumor cell proliferation, A549; type: cell-based, human; conditions: many values given with an undefined *, read-out: In vitro Tumor Cell Proliferation (IC50, μM) Lung A549
In short: as §1

[9] = system: MDA-MB-435; test: In vitro tumor cell proliferation, MDA-MB-435; type: cell-based; conditions: values given with an undefined *, read-out: In vitro Tumor Cell Proliferation (IC50, μM) Breast MDA-MB-435
In short: as §1

[10] = system: HT-29; test: In vitro tumor cell proliferation, HT-29; type: cell-based, human; conditions: many values given with an undefined *, read-out: In vitro Tumor Cell Proliferation (IC50, μM) Colon HT-29
In short: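 Growth was quantified either with CyQUANT, plates frozen at −80° C after 3 days of drug, or by sulforhodamine B staining of TCA-fixed cells after 3 days of drug plus 4 days with fresh drug. Trypan blue-excluding HT-29 cells were plated overnight at 37° C before dosing.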

[11] = Homo sapiens, MDA-MB-231, MDA-MB-231
[12] = Homo sapiens, COLO 205, Colo-205
[13] = Homo sapiens, MDA-MB-435, MDA-MB-435

T1 sequence (P11802 whole entry): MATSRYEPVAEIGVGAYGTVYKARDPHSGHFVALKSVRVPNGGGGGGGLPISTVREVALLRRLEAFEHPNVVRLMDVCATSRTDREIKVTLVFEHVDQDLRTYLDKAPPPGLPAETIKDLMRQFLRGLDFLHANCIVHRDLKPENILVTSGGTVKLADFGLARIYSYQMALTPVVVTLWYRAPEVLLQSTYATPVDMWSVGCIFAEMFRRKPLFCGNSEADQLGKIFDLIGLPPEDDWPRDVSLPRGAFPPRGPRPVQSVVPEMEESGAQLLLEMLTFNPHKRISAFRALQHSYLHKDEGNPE
T1 sequence (P24385 whole entry partner): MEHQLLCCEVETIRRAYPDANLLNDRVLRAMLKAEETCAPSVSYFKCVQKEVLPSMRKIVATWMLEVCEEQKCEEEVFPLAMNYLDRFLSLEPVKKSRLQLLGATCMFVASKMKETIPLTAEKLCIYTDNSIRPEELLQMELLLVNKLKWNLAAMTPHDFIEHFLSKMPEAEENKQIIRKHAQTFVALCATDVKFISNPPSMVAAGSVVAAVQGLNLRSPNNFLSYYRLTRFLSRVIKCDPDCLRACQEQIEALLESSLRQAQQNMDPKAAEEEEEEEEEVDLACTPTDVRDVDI

Row | SMILES | IC50 ([1]; Homo sapiens, DMS-114, DMS-114) | IC50 [2, 11] | IC50 [3] | IC50 [4, 12] | IC50 ([5]; Homo sapiens, DU-145, DU145) | IC50 ([6]; Homo sapiens, PC-3, PC-3) | IC50 [7] | IC50 ([8]; Homo sapiens, A549, A549) | IC50 [9, 13] | IC50 ([10]; Homo sapiens, HT-29, HT-29) | IC50 ([1]; DMS-114, trihydrochloride) | IC50 ([2]; MDA-MB-231, trihydrochloride) | IC50 ([5]; DU145, trihydrochloride) | IC50 ([9]; MDA-MB-435, trihydrochloride) | further results
1 | N[C@H]1CC[C@H](Nc2nc(NC3CCN(Cc4c(Cl)cccc4Cl)CC3)c3ncn(C4CCCC4)c3n2)CC1 [Example 45, 2-[Trans-(4-aminocyclohexyl)amino]-6-[4-(1-(2,6-dichlorobenzyl))piperidinylamino]-9-cyclopentylpurine] | 1.3 µM | 0.89 µM | 6700 nM | 0.53 µM | 0.51 µM | 0.63 µM | 1100 nM and 900 nM | 0.46 µM | 0.96 µM | 0.71 µM | – | – | – | – | IC50 ([1]; DMS-114): 0.71 µM; IC50 ([2]; MDA-MB-231): 0.71 µM; IC50 ([4]; Colo-205): 0.48 µM; IC50 ([5]; DU145): 0.46 µM; IC50 ([6]; PC-3): 0.74 µM; IC50 ([8]; A549): 0.32 µM; IC50 ([9]; MDA-MB-435): 0.75 µM; IC50 ([10]; HT-29): 0.55 µM
2 | N[C@H]1CC[C@H](Nc2nc(NC3CCN(Cc4ccc(C(F)(F)F)cc4)CC3)c3ncn(C4CCCC4)c3n2)CC1 [Example 46, 2-[Trans-(4-aminocyclohexyl)amino]-6-[4-(1-(4-trifluoromethylbenzyl))piperidinylamino]-9-cyclopentylpurine] | – | – | 20000 nM | – | – | – | 500 nM and 450 nM | – | – | – | – | – | – | – | IC50 ([1]; DMS-114): 0.35 µM and 0.58 µM; IC50 ([2]; MDA-MB-231): 0.46 µM and 0.53 µM; IC50 ([4]; Colo-205): 0.44 µM and 0.46 µM; IC50 ([5]; DU145): 0.36 µM and 0.49 µM; IC50 ([6]; PC-3): 0.39 µM and 0.46 µM; IC50 ([8]; A549): 0.28 µM and 0.33 µM; IC50 ([9]; MDA-MB-435): 0.61 µM and 0.62 µM; IC50 ([10]; HT-29): 0.53 µM and 0.44 µM
3 | N[C@H]1CC[C@H](Nc2nc(N[C@H]3CC[C@H](O)CC3)c3ncn(C4CCCC4)c3n2)CC1 [Example 145a, Trans-2-[Trans-(4-aminocyclohexyl)amino]-6-[(4-hydroxy)cyclohexylamino]-9-cyclopentylpurine dihydrochloride] | 4.6 µM | 3 µM | 1500 nM and 1600 nM | 1.7 µM | 3.9 µM | 1.9 µM | 50 nM | 4.4 µM | 3.3 µM | 3.4 µM | – | – | – | – | IC50 ([1]; DMS-114, dihydrochloride): 3.1 µM; IC50 ([2]; MDA-MB-231, dihydrochloride): 2.9 µM; IC50 ([4]; Colo-205, dihydrochloride): 1.6 µM; IC50 ([5]; DU145, dihydrochloride): 3.8 µM; IC50 ([6]; PC-3, dihydrochloride): 2.1 µM; IC50 ([8]; A549, dihydrochloride): 4.8 µM; IC50 ([9]; MDA-MB-435, dihydrochloride): 3.8 µM; IC50 ([10]; HT-29, dihydrochloride): 2.3 µM
4 | N[C@H]1CC[C@H](Nc2nc(NC3(CO)CCCC3)c3ncn(C4CCCC4)c3n2)CC1 [Example 146, (R,S)-2-[Trans-(4-aminocyclohexyl)amino]-6-[(1-hydroxymethyl)cyclopentylamino]-9-cyclopentylpurine dihydrochloride] | – | – | 1600 nM and 810 nM and 500 nM | 12 µM | 12 µM | 11 µM | 164 nM | 12 µM | – | 16 µM | – | – | – | – | IC50 ([1]; DMS-114, dihydrochloride): 11 µM; IC50 ([2]; MDA-MB-231, dihydrochloride): 12 µM; IC50 ([5]; DU145, dihydrochloride): 16 µM; IC50 ([6]; PC-3, dihydrochloride): 10 µM; IC50 ([9]; MDA-MB-435, dihydrochloride): 21 µM; IC50 ([10]; HT-29, dihydrochloride): 11 µM
5 | N[C@H]1CC[C@H](Nc2nc(NC3CCN(Cc4cccc5ccccc45)CC3)c3ncn(C4CCCC4)c3n2)CC1 [Example 147-a, 2-[Trans-(4-aminocyclohexyl)amino]-6-[4-[1-(1-naphthyl)methyl]piperidinylamino)-9-cyclopentylpurine trihydrochloride] | 0.32 µM | 0.35 µM | 2900 nM and 2100 nM | 0.2 µM | 0.22 µM | 0.24 µM | 410 nM and 97 nM and 440 nM | 0.17 µM | 0.42 µM | 0.32 µM | 0.33 µM | 0.34 µM | 0.33 µM | 0.408 µM | IC50 ([6]; PC-3, trihydrochloride): 0.34 µM
6 | N[C@H]1CC[C@H](Nc2nc(NC3CCN(Cc4ccc(C(F)(F)F)cc4C(F)(F)F)CC3)c3ncn(C4CCCC4)c3n2)CC1 [Example 147-aa, 2-[Trans-(4-aminocyclohexyl)amino]-6-[4-[1-(2,4-bis-trifluoromethylbenzyl)]piperidinylamino]-9-cyclopentylpurine trihydrochloride] | – | – | – | – | – | – | – | – | – | – | 2.7 µM and 2.9 µM | 2.5 µM and 3.1 µM | 4.4 µM and 4.3 µM | 5.8 µM and 4.9 µM | IC50 ([3]; trihydrochloride): 10000 nM and 8400 nM; IC50 ([4]; Colo-205, trihydrochloride): 4 µM and 2.9 µM; IC50 ([6]; PC-3, trihydrochloride): 3.8 µM and 4.6 µM; IC50 ([7]; trihydrochloride): 1600 nM and 2600 nM; IC50 ([8]; A549, trihydrochloride): 4.1 µM and 3.6 µM; IC50 ([10]; HT-29, trihydrochloride): 2.8 µM and 2.3 µM
7 | N[C@H]1CC[C@H](Nc2nc(NC3CCN(Cc4ccccc4OC(F)(F)F)CC3)c3ncn(C4CCCC4)c3n2)CC1 [Example 147-ab, 2-[Trans-(4-aminocyclohexyl)amino]-6-[4-[1-(2-trifluoromethoxybenzyl)]piperidinylamino]-9-cyclopentylpurine trihydrochloride] | 0.74 µM | 0.62 µM | 4500 nM and 2700 nM | 0.43 µM | 0.59 µM | 0.69 µM | 250 nM and 900 nM | 0.33 µM | 0.84 µM | 0.73 µM | 0.64 µM | 0.7 µM | 0.6 µM | 0.91 µM | IC50 ([4]; Colo-205, trihydrochloride): 0.45 µM; IC50 ([8]; A549, trihydrochloride): 0.39 µM; IC50 ([10]; HT-29, trihydrochloride): 0.62 µM

Reference: patent publication US6479487B1, “6, 9-disubstituted 2-[trans-(4-aminocyclohexyl)amino] purines” (Aventis Pharmaceuticals Inc., priority 1998, dated 2002)
